From patent US10538567B2, “Compounds as peptidic trigonal GLP1/glucagon/GIP receptor agonists” (priority 2016, dated 2020)
Converted amounts (≈) assume the structure as drawn. Numbered stars: 1 amine (or outer) side, 2 acyl side, 3 side chain; on linkers, the order of the positions; unused ones are H or OH. Square brackets hold non-standard residues; d marks the D form. Side chains are listed from the residue outwards. Peptide text beside a SMILES is read from it. * marks the point of attachment. γGlu = O=C(O)[C@H](CCC(=O)[*:2])N[*:1]; Palmitoyl = CCCCCCCCCCCCCCCC(=O)*; Aib = CC(C)(N)C(=O)O

Assays:
[1] = test system: female diet-induced obese (DIO) C57BL/6 mice; test: Acute and chronic effects after s.c. treatment in female diet-induced obese (DIO) C57BL/6 mice; type: in vivo
Method: Female C57BL/6NHsd mice were ordered group housed from Envigo RMS Inc., shipped group housed and remained group housed with shipped cage mates in shoebox caging with wood chip bedding until day 38 of the predose phase. At the study start mice were between 25-26 weeks old.
Mice were housed under vivarium conditions that included a 12 h light/dark cycle (light phase 04:00 AM-4:00 PM), room temperatures between 23-26° C. and a relative humidity between 30-70%. All animals had free access to water and a high fat diet (TD97366) for 16 weeks prior to pharmacological intervention (dosing phase). Feed was replaced with fresh feed weekly until and for the last time on day 38 of the predose phase. During the subsequent dosing phase, approximately 50% of the remaining feed were removed, replaced with fresh feed, and pellets were mixed evenly once per week.
On predose day 38, obese DIO mice were assigned to treatment groups (n=8) to match mean body masses between all DIO groups. An age-matched group with ad libitum access to a rodent maintenance diet (Teklad Global Diets Rodent 2014, pelleted) was included in the study as a lean control group. In the predosing phase from day 32 through 38, all study animals were treated with vehicle (Phosphate Buffered Saline, PBS, Gibco, without CaCl2 and MgCl2) once daily (s.c. approximately 0.2 mL/mouse).
On day 37 of the predose phase, the test article was diluted with PBS to a concentration of 100 μg/mL and aliquots of this stock solution were stored at approximately ≤−60° C. Stock aliquots were thawed for weekly use and thereafter stored in a refrigerator at approximately 4° C. The injected test article solution was prepared fresh once on each dosing day by diluting stock solution with PBS to achieve the desired concentration.
Mice were treated twice daily with a s.c. injection of PBS-vehicle or the test article for 28 days. The morning dosing was initiated and completed between 06:00 and 07:30 AM and the afternoon dosing between 2:00 and 3:30 PM. On day 28 of the dosing phase only the morning dose was administered. The applied volume was 5 ml/kg and the dose was adjusted to the most recent body mass recording of each individual.
Animals had unlimited access to water and feed during the experiment. On day 1 of the dosing phase approximately 5 μL of blood were collected via tail clips at hour 0 prior to the first s.c. dose of PBS-vehicle or test article and 1, 2, 3, 4, 6, and 24 hours post-dose in non-anesthetized animals. The 24 hour blood collection was performed prior to dosing on day 2. Between the 6 and 24 hour blood sample the afternoon dose was administered. Glucose measurements were performed in whole blood and in duplicate or triplicate using Aviva glucometers.
Body mass was measured daily approximately between 06:00-07:30 AM from day 32 through 38 of the predosing phase and throughout the 28 days of the dosing phase. During the dosing phase mice were treated twice daily with either a s.c. injection of PBS-vehicle or test article.
To determine whole body fat mass Quantitative Nuclear Magnetic Resonance (QNMR) measurements were performed on predosing day 37 and on day 26 of the dosing phase. During the dosing phase mice were treated twice daily with either a s.c. injection of PBS-vehicle or test article.
Feed consumption was based on the daily assessment of the feeder weights of each cage between 06:00-07:30 AM. Each cage housed four mice and feed consumption was calculated throughout the 28 days of the dosing phase. During the dosing phase mice were treated twice daily with either a s.c. injection of PBS-vehicle or test article.
On day 28 blood was collected prior to any other inlife activities for determination of plasma insulin concentrations. Then the morning dose was administered and necropsy was performed 4 hours post-dose. For this purpose animals were anesthetized with isoflurane and blood was collected by orbital bleeding. […]

[2] = Solubility assessment in solubility buffer system A; type: physicochemical; conditions: acetate buffer pH 4.5 with m-cresol; acetate buffer pH 4.5, 2.7 mg/ml m-cresol, target 10 mg/ml
Method: Prior to the solubility measurement of a peptide batch, its purity was determined through UPLC/MS.
Therefore solutions from solid samples were prepared in a buffer system with a concentration of 10 mg/mL compound based on the previously determined % purity:
Solubility buffer system A) Acetate Buffer pH 4.5, 100 mM sodium acetate trihydrate, 2.7 mg/ml m-Cresol
UPLC-UV was performed after 1 hour of gentle agitation from the supernatant, which was obtained after 15 min of centrifugation at 2500 RCF (relative centrifugal acceleration).
The solubility was determined by the comparison of the UV peak area of 2 μL-injection of a buffered sample diluted 1:10 with a standard curve of a reference peptide with known concentration. The different UV extinction coefficients of sample and reference peptide were calculated based on the different amino acid sequences and considered in the concentration calculation.
Peptide samples were prepared in solubility buffer system A and solubility was assessed as described in Methods.

male ApoE KO mice = test: Anti-atherosclerotic activity in ApoE KO mice, 16 weeks minipump infusion; type: in vivo; conditions: 150 μg/kg/day
Excerpt: The apolipoprotein E (ApoE) knockout (KO) mouse model is widely used to investigate atherosclerosis. These mice spontaneously develop atherosclerotic lesions that are morphologically similar to those observed in humans (Meir & Leitersdorf 2004, Arterioscler Thromb Vasc Biol 24: 1006-1014, Rosenfeld et al. 2000, Arterioscler Thromb Vasc Biol 20: 2587-2592).
Male ApoE KO mice (B.129P2-apoetm1Unc/J) were randomly allocated to control or treatment groups (N=15 per group); wild-type mice (C57BL6/J) received vehicle treatment and acted as a second, healthy control.
ApoE KO and wild-type mice received constant 16 weeks infusion using subcutaneous osmotic minipumps (ALZET™) filled with either vehicle (sterile acetate buffer, pH 4.5), Peptides SEQ ID NO. 6 & SEQ ID NO. 11 (150 μg/kg/day) or with Liraglutide (600 μg/kg/day). Body weight and food intake was monitored throughout the study on a weekly basis.
Blood samples for blood lipid analysis were drawn before treatment and at weeks 7 and 16 to analyze total cholesterol, low density lipoprotein (LDL) cholesterol and high density lipoprotein (HDL) cholesterol (not shown).
The aorta was dissected and aortic atherosclerotic plaque formation was measured as absolute and relative plaque area (% oilred stained area of total aortic surface area) using quantitative and automated image analysis.

Row | solubility at 1 h [2] | Structure (SMILES) | time until mice habituated to the feed intake suppression ([1]; DIO mice, 30 μg/kg s.c. twice-daily) | Feed consumption estimate ([1]; DIO mice, 30 μg/kg s.c. twice-daily, after dosing start) | Blood glucose profile following first treatment ([1]; fed DIO mice, day 1, 30 μg/kg s.c., 0-24 hours post-dose) | reduction of atherosclerotic plaques relative to vehicle control (male ApoE KO mice; 4 months (16 weeks) s.c. minipump) | LDL-cholesterol (male ApoE KO mice; 16 weeks)
1 | > 9700 µg/mL | CCCCCCCCCCCCCCCC(=O)N[C@@H](CCC(=O)N[C@@H](CCC(=O)NCCCC[C@H](NC(=O)[C@H](CC(C)C)NC(=O)[C@H](CCCCN)NC(=O)[C@H](CO)NC(=O)[C@H](CC(C)C)NC(=O)[C@H](CC(=O)O)NC(=O)[C@H](CO)NC(=O)[C@@H](NC(=O)[C@H](Cc1ccccc1)NC(=O)[C@@H](NC(=O)CNC(=O)[C@H](Cc1c[nH]cn1)NC(=O)C(C)(C)NC(=O)[C@@H](N)Cc1c[nH]cn1)[C@@H](C)O)[C@@H](C)O)C(=O)N[C@@H](CCC(=O)O)C(=O)N[C@@H](CCC(=O)O)C(=O)N[C@@H](CCC(N)=O)C(=O)N[C@@H](CCCNC(=N)N)C(=O)N[C@@H](CCC(N)=O)C(=O)N[C@@H](CCCCN)C(=O)N[C@@H](CCC(=O)O)C(=O)N[C@@H](Cc1ccccc1)C(=O)N[C@H](C(=O)N[C@@H](CCC(=O)O)C(=O)N[C@@H](Cc1c[nH]c2ccccc12)C(=O)N[C@@H](CC(C)C)C(=O)N[C@@H](CCCCN)C(=O)N[C@@H](C)C(=O)NCC(=O)NCC(=O)N[C@@H](Cc1c[nH]cn1)C(=O)N1CCC[C@H]1C(=O)N[C@@H](CO)C(=O)NC(C)(C)C(=O)N[C@@H](CCCCN)C(=O)N1CCC[C@H]1C(=O)N1CCC[C@H]1C(=O)N1CCC[C@H]1C(=O)N[C@@H](CCCCN)C(N)=O)[C@@H](C)CC)C(=O)O)C(=O)O [SEQ ID NO: 6, H-Aib-H-G-T-F-T-S-D-L-S-K-L-K[gGlu-gGlu-Palm]-E-E-Q-R-Q-K-E-F-I-E-W-L-K-A-G-G-H-P-S-Aib-K-P-P-P-K-NH2] | approximately ten | suppressed feed intake | pronounced decrease in blood glucose concentrations over 24 hours | 63% | marked reduction
2 | 9500 µg/mL (≈ 1940 µM) | CCCCCCCCCCCCCCCC(=O)N[C@@H](CCC(=O)N[C@@H](CCC(=O)NCCCC[C@H](NC(=O)[C@H](CC(C)C)NC(=O)[C@H](CCCCN)NC(=O)[C@H](CO)NC(=O)[C@H](CC(C)C)NC(=O)[C@H](CC(=O)O)NC(=O)[C@H](CO)NC(=O)[C@@H](NC(=O)[C@H](Cc1ccccc1)NC(=O)[C@@H](NC(=O)CNC(=O)[C@H](Cc1c[nH]cn1)NC(=O)C(C)(C)NC(=O)[C@@H](N)Cc1c[nH]cn1)[C@@H](C)O)[C@@H](C)O)C(=O)N[C@@H](CCC(=O)O)C(=O)N[C@@H](CCC(=O)O)C(=O)N[C@@H](CCC(N)=O)C(=O)N[C@@H](CCCNC(=N)N)C(=O)N[C@@H](CCC(N)=O)C(=O)N[C@@H](CCCCN)C(=O)N[C@@H](CCC(=O)O)C(=O)N[C@@H](Cc1ccccc1)C(=O)N[C@H](C(=O)N[C@@H](CCC(=O)O)C(=O)N[C@@H](Cc1c[nH]c2ccccc12)C(=O)N[C@@H](CC(C)C)C(=O)N[C@@H](CCCCN)C(=O)N[C@@H](C)C(=O)NCC(=O)NCC(=O)N1CCC[C@H]1C(=O)N1CCC[C@H]1C(=O)N[C@@H](CO)C(=O)NC(C)(C)C(=O)N[C@@H](CCCCN)C(=O)N1CCC[C@H]1C(=O)N1CCC[C@H]1C(=O)N1CCC[C@H]1C(=O)N[C@@H](CCCCN)C(N)=O)[C@@H](C)CC)C(=O)O)C(=O)O [SEQ ID NO: 8, H-Aib-H-G-T-F-T-S-D-L-S-K-L-K[gGlu-gGlu-Palm]-E-E-Q-R-Q-K-E-F-I-E-W-L-K-A-G-G-P-P-S-Aib-K-P-P-P-K-NH2] | – | – | – | – | –
3 | > 9300 µg/mL | CCCCCCCCCCCCCCCC(=O)N[C@@H](CCC(=O)N[C@@H](CCC(=O)NCCCC[C@H](NC(=O)[C@H](CC(C)C)NC(=O)[C@H](CCCCN)NC(=O)[C@H](CO)NC(=O)[C@H](CC(C)C)NC(=O)[C@H](CC(=O)O)NC(=O)[C@H](CO)NC(=O)[C@@H](NC(=O)[C@H](Cc1ccccc1)NC(=O)[C@@H](NC(=O)CNC(=O)[C@H](Cc1c[nH]cn1)NC(=O)C(C)(C)NC(=O)[C@@H](N)Cc1c[nH]cn1)[C@@H](C)O)[C@@H](C)O)C(=O)N[C@@H](CCC(=O)O)C(=O)N[C@@H](CCC(=O)O)C(=O)N[C@@H](CCC(N)=O)C(=O)N[C@@H](CCCNC(=N)N)C(=O)N[C@@H](CCC(N)=O)C(=O)N[C@@H](CCCCN)C(=O)N[C@@H](CCC(=O)O)C(=O)N[C@@H](Cc1ccccc1)C(=O)N[C@H](C(=O)N[C@@H](CCC(=O)O)C(=O)N[C@@H](Cc1c[nH]c2ccccc12)C(=O)N[C@@H](CC(C)C)C(=O)N[C@@H](CCCCN)C(=O)N[C@@H](C)C(=O)N[C@H](C)C(=O)NCC(=O)N1CCC[C@H]1C(=O)N1CCC[C@H]1C(=O)N[C@@H](CO)C(=O)NC(C)(C)C(=O)N[C@@H](CCCCN)C(=O)N1CCC[C@H]1C(=O)N1CCC[C@H]1C(=O)N1CCC[C@H]1C(=O)N[C@@H](CCCCN)C(N)=O)[C@@H](C)CC)C(=O)O)C(=O)O [SEQ ID NO: 9, H-Aib-H-G-T-F-T-S-D-L-S-K-L-K[gGlu-gGlu-Palm]-E-E-Q-R-Q-K-E-F-I-E-W-L-K-A-dAla-G-P-P-S-Aib-K-P-P-P-K-NH2] (H-H[Aib]HGTFTSDLSKLK([γGlu-γGlu-Palmitoyl])EEQRQKEFIEWLKA[dA]GPPS[Aib]KPPPK-NH2) | – | – | – | – | –
4 | > 9800 µg/mL | CCCCCCCCCCCCCCCC(=O)N[C@@H](CCC(=O)N[C@@H](CCC(=O)NCCCC[C@H](NC(=O)[C@H](CC(C)C)NC(=O)[C@H](CCCCN)NC(=O)[C@H](CO)NC(=O)[C@H](CC(C)C)NC(=O)[C@H](CC(=O)O)NC(=O)[C@H](CO)NC(=O)[C@@H](NC(=O)[C@H](Cc1ccccc1)NC(=O)[C@@H](NC(=O)CNC(=O)[C@H](Cc1c[nH]cn1)NC(=O)C(C)(C)NC(=O)[C@@H](N)Cc1c[nH]cn1)[C@@H](C)O)[C@@H](C)O)C(=O)N[C@@H](CCC(=O)O)C(=O)N[C@@H](CCC(=O)O)C(=O)N[C@@H](CCC(N)=O)C(=O)N[C@@H](CCCNC(=N)N)C(=O)N[C@@H](CCC(N)=O)C(=O)NC(C)(C)C(=O)N[C@@H](CCC(=O)O)C(=O)N[C@@H](Cc1ccccc1)C(=O)N[C@H](C(=O)N[C@@H](CCC(=O)O)C(=O)N[C@@H](Cc1c[nH]c2ccccc12)C(=O)N[C@@H](CC(C)C)C(=O)N[C@@H](CCCCN)C(=O)N[C@@H](C)C(=O)NCC(=O)NCC(=O)N1CCC[C@H]1C(=O)N1CCC[C@H]1C(=O)N[C@@H](CO)C(=O)NC(C)(C)C(=O)N[C@@H](CCCCN)C(=O)N1CCC[C@H]1C(=O)N1CCC[C@H]1C(=O)N1CCC[C@H]1C(=O)N[C@@H](CCCCN)C(N)=O)[C@@H](C)CC)C(=O)O)C(=O)O [SEQ ID NO: 10, H-Aib-H-G-T-F-T-S-D-L-S-K-L-K[gGlu-gGlu-Palm]-E-E-Q-R-Q-Aib-E-F-I-E-W-L-K-A-G-G-P-P-S-Aib-K-P-P-P-K-NH2] | – | – | – | – | –
